According to patent US20260109707A1, “HETEROBIFUNCTIONAL COMPOUNDS AND METHODS OF TREATING DISEASE” (Halda Therapeutics OpCo. Inc., priority 2022, published 2026):
Where two headings read alike, the source gives them in different places.

Tests used:
VCaP cells = test: Cellular growth inhibition assay for VCaP cells (CellTiter-Glo, 72 hours); type: cell-based, human
In short: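 Luminescent viability signal after 72 h of compound exposure gave GI50 values by four-parameter nonlinear regression. Compounds were added in 0.5% DMSO to cells plated 24 h earlier at 5000/well in DMEM containing 10% FBS.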

[1] = system: T-Rex 293 cell line SC3 cells having increased expression of androgen receptor protein due to exposure to doxycycline; test: Cellular growth inhibition assay, T-Rex 293 SC3 cells with doxycycline (CellTiter-Glo, 72 hours); type: cell-based; conditions: T-Rex 293 SC3 cells with increased androgen receptor expression due to doxycycline (10 ng/mL)
In short: (§1)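 Doxycycline (10 ng/mL) was either included or omitted to toggle wild-type androgen receptor expression in SC3 cells, a T-Rex 293 clone, grown in stripped-serum, phenol red-free medium. After 72 hours with compound, viable cells were quantified by CellTiter-Glo 2.0.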

[2] = system: T-Rex 293 cell line SC3 cells lacking increased expression of androgen receptor protein; test: Cellular growth inhibition assay, T-Rex 293 SC3 cells without doxycycline (CellTiter-Glo, 72 hours); type: cell-based; conditions: T-Rex 293 cell line SC3 cells not exposed to doxycycline (lacking increased androgen receptor expression)
In short: as §1

Compound	GI50 (VCaP cells; Homo sapiens, VCaP, 72 h) [nM]	GI50 (VCaP cells) [nM]	GI50 ([1]; 72 h) [nM]	GI50 ([2]; 72 h) [nM]	GI50 [1] [nM]	GI50 [2] [nM]
Cc1sc2c(c1C)C(c1cccc(CC3CC4(CCCN(c5ccc(C(=O)N[C@H]6CC[C@H](Oc7ccc(C#N)c(Cl)c7)CC6)nn5)C4)C3)c1)=N[C@@H](C)c1nnc(C)n1-2 (stereo partly drawn) [I-711]	< 500		< 500	> 3000		
Cc1sc2c(c1C)C(c1cccc(CC3CC4(CCCN(c5ccc(C(=O)N[C@H]6CC[C@H](Oc7ccc(C#N)c(Cl)c7)CC6)nn5)C4)C3)c1)=N[C@@H](C)c1nnc(C)n1-2 (stereo partly drawn) [I-712]		< 500			< 500	> 3000
Cc1sc2c(c1C)C(c1cccc(CC3CCC4(CC3)CCN(c3ccc(C(=O)N[C@H]5CC[C@H](Oc6ccc(C#N)c(Cl)c6)CC5)nn3)C4)c1)=N[C@@H](C)c1nnc(C)n1-2 (stereo partly drawn) [I-714]		< 500			< 500	< 500
Cc1sc2c(c1C)C(c1ccccc1OC1CC3(CCCN(c4ccc(C(=O)N[C@H]5CC[C@H](Oc6ccc(C#N)c(Cl)c6)CC5)nn4)C3)C1)=N[C@@H](C)c1nnc(C)n1-2 (stereo partly drawn) [I-716]	> 3000		> 3000	> 3000		
Cc1sc2c(c1C)C(c1ccc(C3CCC4(CC3)CCN(c3ccc(C(=O)N[C@H]5CC[C@H](Oc6ccc(C#N)c(Cl)c6)CC5)nn3)C4)cn1)=NC1(CC1)c1nnc(C)n1-2 (stereo partly drawn) [I-718]		< 500			1500 to 3000	> 3000
Cc1sc2c(c1C)C(c1ccc(N3CC4(CC(Cc5ccc(C(=O)N[C@H]6CC[C@H](Oc7ccc(C#N)c(Cl)c7)CC6)nn5)C4)C3)cc1)=NC(C(F)(F)F)c1nnc(C)n1-2 (stereo partly drawn) [I-724]	< 500			> 3000	> 3000	
Cc1sc2c(c1C)C(c1ccc(N3CC4(CC(Cc5ccc(C(=O)N[C@H]6CC[C@H](Oc7ccc(C#N)c(Cl)c7)CC6)nn5)C4)C3)cc1)=NC(C(F)(F)F)c1nnc(C)n1-2 (stereo partly drawn) [I-725]		< 500			< 500	> 3000
Cc1sc2c(c1C)C(c1ccc(N3CCC4(CCN(c5ccc(C(=O)N[C@H]6CC[C@H](Oc7ccc(C#N)c(Cl)c7)CC6)nn5)CC4)C3)cc1)=NC(C(F)(F)F)c1nnc(C)n1-2 (stereo partly drawn) [I-726]	< 500			> 3000	< 500	
Cc1sc2c(c1C)C(c1ccc(N3CCC4(CCN(c5ccc(C(=O)N[C@H]6CC[C@H](Oc7ccc(C#N)c(Cl)c7)CC6)nn5)CC4)C3)cc1)=NC(C(F)(F)F)c1nnc(C)n1-2 (stereo partly drawn) [I-727]		< 500			> 3000	> 3000
Cc1sc2c(c1C)C(c1ccc(N3C4CCCC3CC3(CCN(c5ccc(C(=O)N[C@H]6CC[C@H](Oc7ccc(C#N)c(Cl)c7)CC6)nn5)C3)C4)cc1)=N[C@@H](C)c1nnc(C)n1-2 (stereo partly drawn) [I-730]	< 500				< 500	> 3000
Cc1sc2c(c1C)C(c1ccc(N3CCC4(CCN(c5ccc(C(=O)N[C@H]6CC[C@H](Oc7ccc(C#N)c(Cl)c7)CC6)nn5)C4)C3)cc1F)=N[C@@H](C)c1nnc(C)n1-2 (stereo partly drawn) [I-732]		< 500	< 500	< 500		
Cc1sc2c(c1C)C(c1ccc(OC3CCC4(CCN(c5ccc(C(=O)N[C@H]6CC[C@H](Oc7ccc(C#N)c(Cl)c7)CC6)nn5)C4)C3)cc1)=N[C@@H](C)c1nnc(C)n1-2 (stereo partly drawn) [I-734]		< 500			< 500	< 500
Cc1sc2c(c1C)C(c1ccc(N3CCC4(CCN(c5ccc(C(=O)N[C@H]6CC[C@H](Oc7ccc(C#N)c(Cl)c7)CC6)nn5)C4)CC3)c(F)c1)=N[C@@H](C)c1nnc(C)n1-2 [I-735]		< 500			< 500	< 500
Cc1sc2c(c1C)C(c1ccc(C3CCC4(CCN(c5ccc(C(=O)N[C@H]6CC[C@H](Oc7ccc(C#N)c(Cl)c7)CC6)nn5)CC4)C3)nc1)=NC1(CC1)c1nnc(C)n1-2 (stereo partly drawn) [I-739]		< 500			< 500	500 to 1500
Cc1sc2c(c1C)C(c1ccc(C#CC3CC4(C3)CN(c3ccc(C(=O)N[C@H]5CC[C@H](Oc6ccc(C#N)c(Cl)c6)CC5)nn3)C4)cc1)=NC(C(F)(F)F)c1nnc(C)n1-2 (stereo partly drawn) [I-741]		< 500		> 3000	< 500	
Cc1sc2c(c1C)C(c1ccc(C3CCC4(CC3)CCN(c3ccc(C(=O)N[C@H]5CC[C@H](Oc6ccc(C#N)c(Cl)c6)CC5)nn3)CC4)nc1)=N[C@@H](C)c1nnc(C)n1-2 [I-744]		< 500			< 500	500 to 1500
Cc1sc2c(c1C)C(c1ccc(N3CCC4(CCN(c5ccc(C(=O)N[C@H]6CC[C@H](Oc7ccc(C#N)c(Cl)c7)CC6)nn5)C4)C3)c(F)c1)=N[C@@H](C)c1nnc(C)n1-2 (stereo partly drawn) [I-745]	< 500				< 500	< 500
Cc1sc2c(c1C)C(c1ccc(N3CCC4(CCN(c5ccc(C(=O)N[C@H]6CC[C@H](Oc7ccc(C#N)c(Cl)c7)CC6)nn5)C4)C3)cc1F)=N[C@@H](C)c1nnc(C)n1-2 (stereo partly drawn) [I-746]	< 500				< 500	500 to 1500
Cc1sc2c(c1C)C(c1cccc(OC3CCC4(CCN(c5ccc(C(=O)N[C@H]6CC[C@H](Oc7ccc(C#N)c(Cl)c7)CC6)nn5)C4)C3)c1)=N[C@@H](C)c1nnc(C)n1-2 (stereo partly drawn) [I-749]		< 500			< 500	500 to 1500
Cc1sc2c(c1C)C(c1ccccc1N1CC3(CCN(c4ccc(C(=O)N[C@H]5CC[C@H](Oc6ccc(C#N)c(Cl)c6)CC5)nn4)CC3)C1)=N[C@@H](C)c1nnc(C)n1-2 [I-751]	< 500		< 500	< 500		

Continued, in another order:

GI50 (VCaP cells; Homo sapiens, VCaP, 72 h) [nM]	GI50 (VCaP cells) [nM]	Compound	GI50 ([1]; 72 h) [nM]	GI50 ([2]; 72 h) [nM]	GI50 [1] [nM]	GI50 [2] [nM]
< 500		Cc1sc2c(c1C)C(c1cccc(CC3CCC4(CC3)CCN(c3ccc(C(=O)N[C@H]5CC[C@H](Oc6ccc(C#N)c(Cl)c6)CC5)nn3)C4)c1)=N[C@@H](C)c1nnc(C)n1-2 (stereo partly drawn) [I-713]			> 3000	> 3000
	< 500	Cc1sc2c(c1C)C(c1cccc(OC3CC4(CCCN(c5ccc(C(=O)N[C@H]6CC[C@H](Oc7ccc(C#N)c(Cl)c7)CC6)nn5)C4)C3)c1)=N[C@@H](C)c1nnc(C)n1-2 (stereo partly drawn) [I-715]			< 500	500 to 1500
	> 3000	Cc1sc2c(c1C)C(c1ccccc1OC1CC3(CCCN(c4ccc(C(=O)N[C@H]5CC[C@H](Oc6ccc(C#N)c(Cl)c6)CC5)nn4)C3)C1)=N[C@@H](C)c1nnc(C)n1-2 (stereo partly drawn) [I-717]			> 3000	> 3000
	< 500	Cc1sc2c(c1C)C(c1ccc(N3CCC4(CCCN(c5ccc(C(=O)N[C@H]6CC[C@H](Oc7ccc(C#N)c(Cl)c7)CC6)nn5)C4)CC3)cc1)=NC(C(F)(F)F)c1nnc(C)n1-2 (stereo partly drawn) [I-721]		> 3000	< 500	
	> 3000	Cc1sc2c(c1C)C(c1ccc(N3CCC4(CCCN(c5ccc(C(=O)N[C@H]6CC[C@H](Oc7ccc(C#N)c(Cl)c7)CC6)nn5)C4)CC3)cc1)=NC(C(F)(F)F)c1nnc(C)n1-2 (stereo partly drawn) [I-722]			> 3000	> 3000
< 500		Cc1sc2c(c1C)C(c1ccc(C#CC3CC4(C3)CN(c3ccc(C(=O)N[C@H]5CC[C@H](Oc6ccc(C#N)c(Cl)c6)CC5)nn3)C4)cc1)=NC(C(F)(F)F)c1nnc(C)n1-2 (stereo partly drawn) [I-723]			> 3000	> 3000
	> 3000	Cc1sc2c(c1C)C(c1ccc(CC3CC4(CCN(c5ccc(C(=O)N[C@H]6CC[C@H](Oc7ccc(C#N)c(Cl)c7)CC6)nn5)CC4)C3)cc1)=NC(C(F)(F)F)c1nnc(C)n1-2 (stereo partly drawn) [I-728]		> 3000	> 3000	
	< 500	Cc1sc2c(c1C)C(c1ccc(CC3CC4(CCN(c5ccc(C(=O)N[C@H]6CC[C@H](Oc7ccc(C#N)c(Cl)c7)CC6)nn5)CC4)C3)cc1)=NC(C(F)(F)F)c1nnc(C)n1-2 (stereo partly drawn) [I-729]			< 500	> 3000
	500 to 1500	Cc1sc2c(c1C)C(c1ccc(N3CCC4(CCN(c5ccc(C(=O)N[C@H]6CC[C@H](Oc7ccc(C#N)c(Cl)c7)CC6)nn5)C4)C3)c(F)c1)=N[C@@H](C)c1nnc(C)n1-2 (stereo partly drawn) [I-731]	< 500	< 500		
	< 500	Cc1sc2c(c1C)C(c1ccc(OC3CCC4(CCN(c5ccc(C(=O)N[C@H]6CC[C@H](Oc7ccc(C#N)c(Cl)c7)CC6)nn5)C4)C3)cc1)=N[C@@H](C)c1nnc(C)n1-2 (stereo partly drawn) [I-733]	< 500	< 500		
500 to 1500		Cc1sc2c(c1C)C(c1ccccc1N1CCC3(CCCN(c4ccc(C(=O)N[C@H]5CC[C@H](Oc6ccc(C#N)c(Cl)c6)CC5)nn4)C3)CC1)=N[C@@H](C)c1nnc(C)n1-2 [I-737]	< 500	< 500		
	< 500	Cc1sc2c(c1C)C(c1ccc(C3CCC4(CCN(c5ccc(C(=O)N[C@H]6CC[C@H](Oc7ccc(C#N)c(Cl)c7)CC6)nn5)CC4)C3)nc1)=NC1(CC1)c1nnc(C)n1-2 (stereo partly drawn) [I-738]			< 500	> 3000
	< 500	Cc1sc2c(c1C)C(c1cccc(OC3CCC4(CC3)CCN(c3ccc(C(=O)N[C@H]5CC[C@H](Oc6ccc(C#N)c(Cl)c6)CC5)nn3)C4)c1)=N[C@@H](C)c1nnc(C)n1-2 (stereo partly drawn) [I-747]	< 500			< 500
< 500		Cc1sc2c(c1C)C(c1cccc(OC3CCC4(CCN(c5ccc(C(=O)N[C@H]6CC[C@H](Oc7ccc(C#N)c(Cl)c7)CC6)nn5)C4)C3)c1)=N[C@@H](C)c1nnc(C)n1-2 (stereo partly drawn) [I-748]	< 500	< 500		
	< 500	Cc1sc2c(c1C)C(c1cccc(OC3CCC4(CCN(c5ccc(C(=O)N[C@H]6CC[C@H](Oc7ccc(C#N)c(Cl)c7)CC6)nn5)C4)C3)c1)=N[C@@H](C)c1nnc(C)n1-2 (stereo partly drawn) [I-750]			< 500	< 500
